From patent EP0812825B1, “PROPENONE DERIVATIVES” (KYOWA HAKKO KOGYO CO., LTD., priority 1995, dated 1997)

Legend:
HeLa S3 cells = test: HeLa S3 cell growth inhibition test (neutral red staining); type: cell-based; settings: Homo sapiens; HeLa S3, 72 hours culture with compound
Description: Test Example 1: HeLa S3 Cell Growth Inhibition Test
Each 0.1 ml of HeLa S3 cells which had been prepared to 3 x 10^4 cells/ml using a medium consisting of MEM medium, 10% fetal bovine serum, and 2 mM glutamine was distributed in each well of 96 well-microtiter plate.
HeLa S3 was cultured at 37°C for one night in a CO2 incubator, each 0.05 ml of test compounds which had been appropriately diluted with the culture solution was added thereto, and the mixture was cultured at 37°C for 72 hours in a CO2 incubator. Supernatant was removed, each 0.1 ml of the culture solution containing 0.02% neutral red was added to the residue, the mixture was incubated at 37°C for one hour in a CO2 incubator, and the cells were stained. Supernatant was removed and the residue was washed once with physiological saline. Then, the pigment was extracted with 0.001 N hydrochloric acid/30% ethanol and the absorbance at 550 nm was measured by a microplatereader. A concentration of the test compound (IC50) at which the growth of cell is inhibited by 50% was calculated by comparing the absorbance of non-treated cells and that of cells treated with a predetermined concentration of the test compound.

[1] = test system: anti-Trinitrophenol (TNP) Antibody Production; test: Effect against anti-trinitrophenol (TNP) antibody production (serum ELISA); type: in vivo, BALB/c mice
Description: Mice which were used for the effect against delayed type hypersensitivity footpad reaction were bled, the sera were separated by centrifugation at 3000rpm at 4°C for 10 minutes, and then anti-TNP antibody titer was measured. For measuring anti-TNP antibody, enzyme-linked immunosorbent assay (ELISA) was used. […] Peroxidase labeled anti-mouse IgG+IgA+IgM (American Qualex International, Inc.) was added and bound to anti-TNP antibody in culture supernatant which was bound to plate. Orthophenylenediamine (Wako Pure Chemical Industries, Ltd) solution containing hydrogen peroxide (Wako Pure Chemical Industries, Ltd) was added and enzyme reaction was started. After sufficient coloring, coloring reaction was stopped by addition of 10% […] (Wako Pure Chemical Industries, Ltd) and absorbance at 490nm was measured by immunoreader (Intermed Japan, NJ-2000).
Suppression rate of anti-TNP antibody production by test compound was calculated according to the following equation.

T-Cell Proliferation = test: T-cell proliferation inhibitory test using mouse mixed lymphocyte reaction (MLR), [3H]-thymidine incorporation; type: cell-based; settings: 72 hours
Description: Test Example 5: T-Cell Proliferation Inhibitory Test Using Mouse Mixed Lymphocyte Reaction (MLR)
Spleen was sterilly removed from C3H/He mouse and single cell suspension was prepared. This suspension was irradiated with 2000R X-ray and adjusted into 8 x 10^6 cells/ml. 50 µl of lymph-node cells of BALB/c mouse (containing 2 x 10^5 cells), 50 µl of X-ray irradiated spleen cell suspension of C3H/He mouse (containing 4 x 10^5 cells), and 50 µl of determined concentration of test compound solution were added in each well of 96 well microtiter plate and cultured at 37°C for 72 hours in the CO2 incubator. Eight hours before the end of culture, [^3H]-Thymidine (1.85 KBq) was added. At the end of culture, cells were trapped. on the filter paper by cell harvester and dried. Toluene type scintillator was added and radioactivity of [^3H]-Thymidine incorporated into cells was measured by liquid scintillation counter.
Suppression rate of T-cell proliferation was calculated according to the following equation. Suppression rate (%) =((Radioactivity in control group) - (Radioactivity in test group))/((Radioactivity in control group) - (Radioactivity in X-ray irradiated C3H/He+Radioactivity in Balb/c))× 100 [formula]

[2] = test system: Delayed Type Hypersensitivity Footpad Reaction; test: Effect against delayed type hypersensitivity footpad reaction (TNBS-immunized mice); type: in vivo, BALB/c mice
Description: Male BALB/c mice (8-weeks-old, Charles River Japan Inc.) were immunized by intradermally injection in the dorsal flank of 100 µl of 10mM 2,4,6-trinitrobenzenesulfonic acid (TNBS) in saline. Five mice were used in each group, that is, control group [0.5% methylcellulose containing 10% dimethyl sulfoxide (DMSO)-administered group], Cyclosporine A (Sandoz)-administered group, and test compound-administered group wherein a determined concentration of test compound suspended in 0.5% methylcellulose containing 10% DMSO was administered. Each of Cyclosporine A and test compound was intraperitoneally administered 30 minutes before and once a day for 4 days after immunization. 50 µl of 10mM TNBS was intradermally injected as a challenging antigen 5 days after immunization when antigen-sensitization was developed. Thickness of both footpads of each animal in each dose of test compound-administered group was measured with a dial thickness gauge 18 hours after antigen challenge, and the value of the difference in thickness of left and right footpad (T) was determined. On the other hand, thickness of both footpads in control group was measured, and the value of the difference in thickness of left and right footpad (C) was determined. Suppression rate in footpad reaction was calculated as [(C - T)/C] x 100.

[3] = dose 3.0 mg/kg x 5, intraperitoneally
[4] = dose 10 mg/kg x 5, intraperitoneally

IC50 (HeLa S3 cells) [nM]	SMILES	also measured
15	COc1cc(C(=O)/C(=C/c2c[nH]c3cccc(Cl)c23)SCC(O)CO)cc(OC)c1OC (stereo not drawn) [Compound 24, (Z)-3-(4-Chloroindol-3-yl)-2-(2,3-dihydroxypropylthio)-1-(3,4,5-trimethoxyphenyl)-2-propen-1-one]	–
6.3	COc1cc(C(=O)/C(=C/c2c[nH]c3ccc(F)cc23)SCC(O)CO)cc(OC)c1OC (stereo not drawn) [Compound 27, (Z)-2-(2,3-Dihydroxypropylthio)-3-(5-fluoroindol-3-yl)-1-(3,4,5-trimethoxyphenyl)-2-propen-1-one]	–
6.3	COc1cc(C(=O)/C(=C/c2c[nH]c3cc(C)ccc23)SCC(O)CO)cc(OC)c1OC (stereo not drawn) [Compound 28, (Z)-2-(2,3-Dihydroxypropylthio)-3-(6-methylindol-3-yl)-1-(3,4,5-trimethoxyphenyl)-2-propen-1-one]	–
18	CCc1ccc2c(/C=C(\SCC(O)CO)C(=O)c3cc(OC)c(OC)c(OC)c3)c[nH]c2c1 (stereo not drawn) [Compound 29, (Z)-2-(2,3-Dihydroxypropylthio)-3-(6-ethylindol-3-yl)-1-(3,4,5-trimethoxyphenyl)-2-propen-1-one]	–
7.2	COc1cc(C(=O)/C(=C/c2c[nH]c3cc(Cl)ccc23)SCC(O)CO)cc(OC)c1OC (stereo not drawn) [Compound 31, (Z)-3-(6-Chloroindol-3-yl)-2-(2,3-dihydroxypropylthio)-1-(3,4,5-trimethoxyphenyl)-2-propen-1-one]	–
5.9	COc1cc(C(=O)/C(=C/c2c[nH]c3cc(F)ccc23)SCC(O)CO)cc(OC)c1OC (stereo not drawn) [Compound 32, (Z)-2-(2,3-Dihydroxypropylthio)-3-(6-fluoroindol-3-yl)-1-(3,4,5-trimethoxyphenyl)-2-propen-1-one]	–
4.4	COc1cc(C(=O)C(=Cc2c[nH]c3ccccc23)SCC(O)C(O)CO)cc(OC)c1OC [Compound 35, 3-(Indol-3-yl)-2-[(2S),(3R)-2,3,4-trihydroxybutylthio]-1-(3,4,5-trimethoxyphenyl)-2-propen-1-one]	–
5.3	COc1cc(C(=O)C(=Cc2c[nH]c3cc(C)ccc23)SC[C@@H](O)[C@H](O)CO)cc(OC)c1OC [Compound 36, 3-(6-Methylindol-3-yl)-2-[(2S),(3R)-2,3,4-trihydroxybutylthio]-1-(3,4,5-trimethoxyphenyl)-2-propen-1-one]	–
7.1	COc1cc(C(=O)C(=Cc2c[nH]c3cc(C)ccc23)SC[C@H](O)[C@@H](O)CO)cc(OC)c1OC [Compound 37, 3-(6-Methylindol-3-yl)-2-[(2R),(3S)-2,3,4-trihydroxybutylthio)-1-(3,4,5-trimethoxyphenyl)-2-propen-1-one]	–

More lines, now with the values behind:

SMILES	IC50 (HeLa S3 cells) [nM]	also measured
CO/C(=C\c1c[nH]c2ccccc12)C(=O)c1cc(OC)c(OC)c(OC)c1 [Compound 1, (Z)-3-(Indol-3-yl)-2-methoxy-1-(3,4,5-trimethoxyphenyl)-2-propen-1-one]	2.4	–
CCO/C(=C\c1c[nH]c2ccccc12)C(=O)c1cc(OC)c(OC)c(OC)c1 [Compound 2, (Z)-2-Ethoxy-3-(indol-3-yl)-1-(3,4,5-trimethoxyphenyl)-2-propen-1-one]	2.5	–
CCCO/C(=C\c1c[nH]c2ccccc12)C(=O)c1cc(OC)c(OC)c(OC)c1 [Compound 3, (Z)-3-(Indol-3-yl)-2-propyloxy-1-(3,4,5-trimethoxyphenyl)-2-propen-1-one]	13	–
COc1cc(C(=O)/C(=C/c2c[nH]c3ccccc23)OC(C)C)cc(OC)c1OC [Compound 4, (Z)-2-Isopropyloxy-3-(indol-3-yl)-1-(3,4,5-trimethoxyphenyl)-2-propen-1-one]	3.7	–
COc1cc(C(=O)/C(=C/c2c[nH]c3ccccc23)Oc2ccccc2C)cc(OC)c1OC [Compound 7, (Z)-3-(Indol-3-yl)-2-(2-methylphenoxy)-1-(3,4,5-trimethoxyphenyl)-2-propen-1-one]	68	–
COc1cc(C(=O)/C(=C/c2c[nH]c3ccccc23)Oc2ccc(Br)cc2)cc(OC)c1OC [Compound 8, (Z)-2-(4-Bromophenoxy)-3-(indol-3-yl)-1-(3,4,5-trimethoxyphenyl)-2-propen-1-one]	62	–
COc1cc(C(=O)/C(=C/c2c[nH]c3ccccc23)SC)cc(OC)c1OC [Compound 9, (Z)-3-(Indol-3-yl)-2-methylthio-1-(3,4,5-trimethoxyphenyl)-2-propen-1-one]	2.2	–
COc1cc(C(=O)/C(=C/c2c[nH]c3cc(C)ccc23)SCCO)cc(OC)c1OC [Compound 13, (Z)-2-(2-Hydroxyethylthio)-3-(6-methylindol-3-yl)-1-(3,4,5-trimethoxyphenyl)-2-propen-1-one]	2.5	–
COC(=O)CS/C(=C\c1c[nH]c2ccccc12)C(=O)c1cc(OC)c(OC)c(OC)c1 [Compound 16, (Z)-3-(Indol-3-yl)-2-methoxycarbonylmethylthio-1-(3,4,5-trimethoxyphenyl)-2-propen-1-one]	4.7	–
COc1cc(C(=O)/C(=C/c2c[nH]c3ccccc23)CCC(O)CO)cc(OC)c1OC (stereo not drawn) [Compound 19, (E)-2-(3,4-Dihydroxybutyl)-3-(indol-3-yl)-1-(3,4,5-trimethoxyphenyl)-2-propen-1-one]	2.1	–
COc1cc(C(=O)/C(=C/c2c[nH]c3cc(C)ccc23)CCC(O)CO)cc(OC)c1OC (stereo not drawn) [Compound 20, (E)-2-(3,4-Dihydroxybutyl)-3-(6-methylindol-3-yl)-1-(3,4,5-trimethoxyphenyl)-2-propen-1-one]	5.6	–
COc1cc(C(=O)/C(=C/c2c[nH]c3ccccc23)SCC(O)CO)cc(OC)c1OC (stereo not drawn) [Compound 21, (Z)-2-(2,3-Dihydroxypropylthio)-3-(indol-3-yl)-1-(3,4,5-trimethoxyphenyl)-2-propen-1-one]	4.8	Suppression rate(%) [1, 3]: 15 (3.0) %; Suppression rate(%) [1, 4]: 57 (10) %; inhibition at 0.1 µM (T-Cell Proliferation; concentration 10^-7 M, read-out: Suppression rate(%)): 107%; inhibition at 0.01 µM (T-Cell Proliferation; concentration 10^-8 M, read-out: Suppression rate(%)): 106%; inhibition at 0.001 µM (T-Cell Proliferation; concentration 10^-9 M, read-out: Suppression rate(%) (converted)): 7.8%; Suppression rate(%) [2, 3]: 8.5 (3.0) %; Suppression rate(%) [2, 4]: 69 (10) %
COc1cc(C(=O)/C(=C/c2cn(C)c3ccccc23)SCC(O)CO)cc(OC)c1OC (stereo not drawn) [Compound 22, (Z)-2-(2,3-Dihydroxypropylthio)-3-(1-methylindol-3-yl)-1-(3,4,5-trimethoxyphenyl)-2-propen-1-one]	20	–
COc1cc(C(=O)/C(=C/c2c[nH]c3cccc(C)c23)SCC(O)CO)cc(OC)c1OC (stereo not drawn) [Compound 23, (Z)-2-(2,3-Dihydroxypropylthio)-3-(4-methylindol-3-yl)-1-(3,4,5-trimethoxyphenyl)-2-propen-1-one]	19	–
